{"source": "patent US20260235618A1", "about": "“MICROBEADS WITH RATIOMETRIC LANTHANIDE ENCODING FOR DRUG SCREENING” (CZ Biohub SF, LLC, priority 2022, published 2026)", "molecular_target": "Cdc20 (Homo sapiens, UniProt Q12834)", "sequence (Q12834 whole entry, species assumed)": "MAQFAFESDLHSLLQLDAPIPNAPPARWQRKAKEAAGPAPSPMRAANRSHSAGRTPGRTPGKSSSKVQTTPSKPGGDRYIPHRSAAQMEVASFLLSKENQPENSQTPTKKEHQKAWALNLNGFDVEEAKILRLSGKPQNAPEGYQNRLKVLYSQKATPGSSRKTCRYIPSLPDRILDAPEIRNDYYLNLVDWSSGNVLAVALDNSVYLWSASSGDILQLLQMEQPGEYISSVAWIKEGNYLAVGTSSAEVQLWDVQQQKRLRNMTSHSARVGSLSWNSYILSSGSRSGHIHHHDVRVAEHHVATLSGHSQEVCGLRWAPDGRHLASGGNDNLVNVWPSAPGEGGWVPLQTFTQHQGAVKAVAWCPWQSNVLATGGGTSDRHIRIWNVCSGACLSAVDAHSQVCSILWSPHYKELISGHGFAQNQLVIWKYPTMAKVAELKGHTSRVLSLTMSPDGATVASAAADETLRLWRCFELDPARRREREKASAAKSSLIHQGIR", "experiment": "Multiplexed binding assay of Cdc20 to peptides on spectrally encoded beads, with and without small molecule (per-bead fluorescence of labeled antibody)", "conditions": "bead-bound D-Box peptides; per-bead fluorescence intensity of fluorescently-labeled antibody recognizing bound Cdc20; vs control without Apcin (FIG. 2)", "excerpt": "FIG. 2 provides data illustrating the effect of the small molecule Apcin on the binding between Cdc20 and different peptide sequences. Binding was quantified by measuring the per-bead fluorescence intensity of a fluorescently-labeled antibody that recognizes bound Cdc20. […] The control is the left bar for each of the peptides.\nIn one illustrative assay, a library of peptide-bound microbeads is generated by synthesizing binding site peptides directly on microbeads. Beads are pooled and then incubated with the protein of interest in the presence or absence of a modulator or candidate biding agent. The beads are then typically washed and the amount of signal from a label directly or indirectly attached to the protein of interest that is bound to each bead is determined. […]\nFor illustration, binding site peptides can be from proteins that are binding partners of any protein of interest, e.g., a signaling protein. […] In some embodiments, such a bead, or pool of such beads, is deposited in a compartment, e.g., a microwell plate such as a 96-well plate, with a signaling protein and a candidate agent to be evaluated, such as a small molecule. […] Use of multiple peptide sequences (e.g., for different binding sites or different affinities) can serve as an internal control and provide the ability to quantitatively assess a loss of signal without concerns regarding assay quality (e.g., FIG. 2). […]", "note": "“Also recorded” adds a separate entry of the source.", "data": [{"smiles": "Cc1ncc([N+](=O)[O-])n1CCOC(=O)NC(Nc1ncccn1)C(Cl)(Cl)Cl", "note": "(stereo not shown) [Apcin]", "values": [{"measurement": "Effect on binding between Cdc20 and D-Box-containing peptide sequences", "result": "blocks the binding site between Cdc20 and D-Box-containing sequences; also recorded: selectively prevented the binding of Cdc20 to D-Box-containing peptides"}]}]}
